Source: patent publication US6525001B1, “Substituted pyrimidine and pyridine herbicides” (Mid-American Commercialization Corporation, priority 1997, dated 2003)

What was measured:
Format in all cases: in vivo
Conditions in all cases: PREEMERGENCE
[1] = system: littleseed canarygrass (Phalaris minor); test: Test D
[2] = system: green foxtail (Setaria viridis); test: Test D; parameters: key: 0 is no effect; 100 is complete control
[3] = system: jointed goatgrass (Aegilops cylindrica); test: Test D
[4] = system: wild mustard (Sinapis arvensis); test: Test D; parameters: key: 0 is no effect; 100 is complete control
[5] = system: pitted morningglory (Ipomoea lacunosa); test: Test E pre-/postemergence/post directed; parameters: key: 0 is no effect; 100 is complete control
Outline: (§1)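 Three application modes in greenhouse pots: preemergence soil spray, postemergence foliar spray at two to four leaves, and post-directed spray to soil and plant base. Ratings of 0–100 injury, assigned visually against untreated controls 13 to 21 days later.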

[6] = system: arrowleaf sida (Sida rhombifolia); test: Test E pre-/postemergence/post directed; parameters: key: 0 is no effect; 100 is complete control
Outline: as §1

[7] = system: johnson grass (Sorghum halepense); test: Test E pre-/postemergence/post directed; parameters: key: 0 is no effect; 100 is complete control
Outline: as §1

[8] = system: leafy spurge (Euphorbia esula); test: Test E pre-/postemergence/post directed; parameters: key: 0 is no effect; 100 is complete control
Outline: as §1

[9] = system: green foxtail (Setaria viridis); test: Test E pre-/postemergence/post directed; parameters: key: 0 is no effect; 100 is complete control
Outline: as §1

[10] = system: alexandergrass (Brachiaria plantaginea); test: Test E pre-/postemergence/post directed; parameters: key: 0 is no effect; 100 is complete control
Outline: as §1

[11] = system: annual bluegrass (Poa annua); test: Test E pre-/postemergence/post directed; parameters: key: 0 is no effect; 100 is complete control
Outline: as §1

B. signalgrass = test: Test E pre-/postemergence/post directed; parameters: key: 0 is no effect; 100 is complete control
Outline: as §1

[12] = system: sandbur (Cenchrus echinatus); test: Test E pre-/postemergence/post directed; parameters: key: 0 is no effect; 100 is complete control
Outline: as §1

[13] = system: Spanishneedles (Bidens bipinnata); test: Test E pre-/postemergence/post directed; parameters: key: 0 is no effect; 100 is complete control
Outline: as §1

[14] = system: common chickweed (Stellaria media); test: Test E pre-/postemergence/post directed; parameters: key: 0 is no effect; 100 is complete control
Outline: as §1

[15] = system: quackgrass (Agropyron repens); test: Test E pre-/postemergence/post directed; parameters: key: 0 is no effect; 100 is complete control
Outline: as §1

SMILES: Cc1cnc(-n2cnc(C(F)(F)F)n2)nc1Cn1ccc(C(F)(F)F)n1 [Compound 51]
- Plant response rating, LS canarygrass ([1]; Rate 31 g/ha): 80
- Plant response rating, LS canarygrass ([1]; Rate 62 g/ha): 90
- Plant response rating, Green foxtail ([2]; Rate 31 g/ha): 100
- Plant response rating, Green foxtail ([2]; Rate 62 g/ha): 100
- Plant response rating, Jointed goatgra ([3]; Rate 31 g/ha): 60
- Plant response rating, Jointed goatgra ([3]; Rate 62 g/ha): 90
- Plant response rating, Wild mustard ([4]; Rate 31 g/ha): 100
- Plant response rating, Wild mustard ([4]; Rate 62 g/ha): 100

SMILES: Cc1cnc(-n2ccc(C(F)(F)F)n2)nc1Cn1ccc(C(F)(F)F)n1 [Compound 52]
- Plant response rating, LS canarygrass ([1]; Rate 31 g/ha): 30
- Plant response rating, LS canarygrass ([1]; Rate 62 g/ha): 60
- Plant response rating, LS canarygrass ([1]; Rate 125 g/ha): 90
- Plant response rating, Green foxtail ([2]; Rate 31 g/ha): 50
- Plant response rating, Green foxtail ([2]; Rate 62 g/ha): 80
- Plant response rating, Green foxtail ([2]; Rate 125 g/ha): 100
- Plant response rating, Jointed goatgra ([3]; Rate 31 g/ha): 30
- Plant response rating, Jointed goatgra ([3]; Rate 62 g/ha): 40
- Plant response rating, Jointed goatgra ([3]; Rate 125 g/ha): 40
- Plant response rating, Wild mustard ([4]; Rate 31 g/ha): 90
- Plant response rating, Wild mustard ([4]; Rate 62 g/ha): 90
- Plant response rating, Wild mustard ([4]; Rate 125 g/ha): 100
- Plant response rating, P. morninglory ([5]; Rate 64 g/ha): 100
- Plant response rating, P. morninglory ([5]; Rate 125 g/ha): 100

SMILES: Cc1cnc(-c2ccc(C(F)(F)F)cc2)nc1Cc1cccc(C(F)(F)F)c1 [Example 1, 5-methyl-2-[4-(trifluoromethyl)phenyl]-4-[[3-(trifluoromethyl)phenyl]methyl]pyrimidine]
- Plant response rating, LS canarygrass ([1]; Rate 31 g/ha): 20
- Plant response rating, LS canarygrass ([1]; Rate 62 g/ha): 60
- Plant response rating, LS canarygrass ([1]; Rate 125 g/ha): 85
- Plant response rating, LS canarygrass ([1]; Rate 250 g/ha): 70
- Plant response rating, Green foxtail ([2]; Rate 31 g/ha): 60
- Plant response rating, Green foxtail ([2]; Rate 62 g/ha): 100
- Plant response rating, Green foxtail ([2]; Rate 125 g/ha): 100
- Plant response rating, Green foxtail ([2]; Rate 250 g/ha): 100
- Plant response rating, Jointed goatgra ([3]; Rate 31 g/ha): 10
- Plant response rating, Jointed goatgra ([3]; Rate 62 g/ha): 20
- Plant response rating, Jointed goatgra ([3]; Rate 125 g/ha): 70
- Plant response rating, Jointed goatgra ([3]; Rate 250 g/ha): 50
- Plant response rating, Wild mustard ([4]; Rate 31 g/ha): 60
- Plant response rating, Wild mustard ([4]; Rate 62 g/ha): 100
- Plant response rating, Wild mustard ([4]; Rate 125 g/ha): 100
- Plant response rating, Wild mustard ([4]; Rate 250 g/ha): 98
- Plant response rating, P. morninglory ([5]; Rate 125 g/ha): 100
- Plant response rating, P. morninglory ([5]; Rate 250 g/ha): 100
- Plant response rating, Arrowleaf sida ([6]; Rate 32 g/ha): 98
- Plant response rating, Arrowleaf sida ([6]; Rate 64 g/ha): 98
- Plant response rating, Arrowleaf sida ([6]; Rate 125 g/ha): 100
- Plant response rating, Johnsongrass ([7]; Rate 250 g/ha): 100
- Plant response rating, Leafy spurge ([8]; Rate 32 g/ha): 75
- Plant response rating, Leafy spurge ([8]; Rate 64 g/ha): 95
- Plant response rating, Leafy spurge ([8]; Rate 125 g/ha): 100
- Plant response rating, Green foxtail ([9]; Rate 32 g/ha): 100
- Plant response rating, Green foxtail ([9]; Rate 64 g/ha): 100
- Plant response rating, Green foxtail ([9]; Rate 125 g/ha): 100
- Plant response rating, Alexandergrass ([10]; Rate 250 g/ha): 100
- Plant response rating, A. bluegrass ([11]; Rate 32 g/ha): 90
- Plant response rating, A. bluegrass ([11]; Rate 64 g/ha): 100
- Plant response rating, A. bluegrass ([11]; Rate 125 g/ha): 100
- Plant response rating, B. signalgrass (B. signalgrass; Rate 32 g/ha): 20
- Plant response rating, B. signalgrass (B. signalgrass; Rate 64 g/ha): 90
- Plant response rating, B. signalgrass (B. signalgrass; Rate 125 g/ha): 100
- Plant response rating, Sandbur ([12]; Rate 250 g/ha): 100
- Plant response rating, Spanishneedles ([13]; Rate 250 g/ha): 100
- Plant response rating, Com. chickweed ([14]; Rate 32 g/ha): 30
- Plant response rating, Com. chickweed ([14]; Rate 64 g/ha): 95
- Plant response rating, Com. chickweed ([14]; Rate 125 g/ha): 100
- Plant response rating, Quackgrass ([15]; Rate 32 g/ha): 65
- Plant response rating, Quackgrass ([15]; Rate 64 g/ha): 80
- Plant response rating, Quackgrass ([15]; Rate 125 g/ha): 100

SMILES: Cc1cnc(-n2ccc(C(F)(F)F)n2)nc1Cc1cccc(C(F)(F)F)c1 [Example 2, 5-methyl-4-[[3-(trifluoromethyl)phenyl]methyl]-2-[3-(trifluoromethyl)-1H-pyrazol-1-yl]pyrimidine]
- Plant response rating, P. morninglory ([5]; Rate 32 g/ha): 100
- Plant response rating, P. morninglory ([5]; Rate 64 g/ha): 100
- Plant response rating, P. morninglory ([5]; Rate 125 g/ha): 100
- Plant response rating, P. morninglory ([5]; Rate 250 g/ha): 100
- Plant response rating, P. morninglory ([5]; Rate 500 g/ha): 100
- Plant response rating, Arrowleaf sida ([6]; Rate 32 g/ha): 98
- Plant response rating, Arrowleaf sida ([6]; Rate 64 g/ha): 100
- Plant response rating, Arrowleaf sida ([6]; Rate 125 g/ha): 100
- Plant response rating, Arrowleaf sida ([6]; Rate 250 g/ha): 100
- Plant response rating, Johnsongrass ([7]; Rate 250 g/ha): 100
- Plant response rating, Johnsongrass ([7]; Rate 500 g/ha): 100
- Plant response rating, Leafy spurge ([8]; Rate 32 g/ha): 60
- Plant response rating, Leafy spurge ([8]; Rate 64 g/ha): 98
- Plant response rating, Leafy spurge ([8]; Rate 125 g/ha): 100
- Plant response rating, Leafy spurge ([8]; Rate 250 g/ha): 100
- Plant response rating, Green foxtail ([9]; Rate 32 g/ha): 90
- Plant response rating, Green foxtail ([9]; Rate 64 g/ha): 100
- Plant response rating, Green foxtail ([9]; Rate 125 g/ha): 100
- Plant response rating, Green foxtail ([9]; Rate 250 g/ha): 100
- Plant response rating, Alexandergrass ([10]; Rate 125 g/ha): 100
- Plant response rating, Alexandergrass ([10]; Rate 250 g/ha): 100
- Plant response rating, Alexandergrass ([10]; Rate 500 g/ha): 100
- Plant response rating, A. bluegrass ([11]; Rate 32 g/ha): 80
- Plant response rating, A. bluegrass ([11]; Rate 64 g/ha): 100
- Plant response rating, A. bluegrass ([11]; Rate 125 g/ha): 100
- Plant response rating, A. bluegrass ([11]; Rate 250 g/ha): 100
- Plant response rating, B. signalgrass (B. signalgrass; Rate 32 g/ha): 65
- Plant response rating, B. signalgrass (B. signalgrass; Rate 64 g/ha): 100
- Plant response rating, B. signalgrass (B. signalgrass; Rate 125 g/ha): 100
- Plant response rating, B. signalgrass (B. signalgrass; Rate 250 g/ha): 100
- Plant response rating, Sandbur ([12]; Rate 250 g/ha): 100
- Plant response rating, Sandbur ([12]; Rate 500 g/ha): 100
- Plant response rating, Spanishneedles ([13]; Rate 64 g/ha): 100
- Plant response rating, Spanishneedles ([13]; Rate 125 g/ha): 100
- Plant response rating, Spanishneedles ([13]; Rate 250 g/ha): 100
- Plant response rating, Spanishneedles ([13]; Rate 500 g/ha): 100
- Plant response rating, Com. chickweed ([14]; Rate 32 g/ha): 100
- Plant response rating, Com. chickweed ([14]; Rate 64 g/ha): 100
- Plant response rating, Com. chickweed ([14]; Rate 125 g/ha): 100
- Plant response rating, Com. chickweed ([14]; Rate 250 g/ha): 100
- Plant response rating, Quackgrass ([15]; Rate 32 g/ha): 20
- Plant response rating, Quackgrass ([15]; Rate 64 g/ha): 90
- Plant response rating, Quackgrass ([15]; Rate 125 g/ha): 100
- Plant response rating, Quackgrass ([15]; Rate 250 g/ha): 100

SMILES: Cc1cnc(-c2ccc(C(F)(F)F)cc2)nc1Cn1ccc(C(F)(F)F)n1 [compound 9]
- Plant response rating, P. morninglory ([5]; Rate 250 g/ha): 100
- Plant response rating, Alexandergrass ([10]; Rate 250 g/ha): 100
